From patent US20220194939A1, “Novel compounds and methods of use treating fructose-related disorders or diseases” (Colorado Research Partners, LLC, priority 2019, published 2022)
Where a name gives a salt, the structure may show the parent alone.

Target: T1, KHK (Homo sapiens, UniProt P50053)
T1 construct: (His)6 tag (N); thrombin cleavage site (N); made in house; host or cells: E. coli BL-21 (DE3)
T1 sequence (P50053 1-298): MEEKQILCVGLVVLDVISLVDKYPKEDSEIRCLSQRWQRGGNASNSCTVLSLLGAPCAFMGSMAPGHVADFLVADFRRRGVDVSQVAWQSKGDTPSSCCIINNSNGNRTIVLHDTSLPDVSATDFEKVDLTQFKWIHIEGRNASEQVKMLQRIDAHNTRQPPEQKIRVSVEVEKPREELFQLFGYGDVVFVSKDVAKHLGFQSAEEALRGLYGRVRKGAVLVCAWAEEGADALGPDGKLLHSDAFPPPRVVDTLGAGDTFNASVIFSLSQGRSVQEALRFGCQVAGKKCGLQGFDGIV
Assay: coupled enzyme assay for KHK activity
Format: biochemical
Details: purified human recombinant KHK, PK/LDH coupled assay, A340 at 25° C., 0.1 mM ATP, 0.2 mM fructose; isoform (KHK-C or KHK-A) not given
Text: Specific coupled enzyme screening assays were developed for KHK-C and KHK-A using recombinant proteins. Purified human recombinant KHK-C and KHK-A were produced using by expression in E. coli BL-21 (DE3) using IPTG induction as a His-tagged fusion proteins and purified using Ni-NTA chromatography on His-Trap FF columns. For KHK-C, the coding region from NCBI refseq number NM_006488 was inserted at the Nde I site of pET28a(+) vector, which puts it downstream from an amino-terminal (His)6 tag and a thrombin cleavage site. The same was done for KHK-A using the coding regions from NCBI refseq number NM_000221.2. The protein was expressed in BL-21 (DE3) using IPTG induction and purified using Ni-NTA (GE His Trap FF) column. The protein was washed with 100 column volumes, eluted with 3 column volumes, and dialyzed with HEPES, pH 7.4 buffers containing 20, 500, and 0 mM imidazole, respectively. The dialysate was concentrated by ultrafiltration (10kD MWCO) to >15 mg/mL protein. The protein prep was >95% pure on SDS-PAGE and the molecular weight was confirmed by relative mobility to be 33,730 Da (34,826 expected).
The assay uses the product of the KHK reaction, ADP, to drive a signal measured in real time for measuring the reaction rate. This consists of a 3-step, coupled-enzyme process by which pyruvate kinase (PK), which converts the ADP from the KHK reaction along with phosphoenolpyruvate (PEP) to ATP and pyruvate, respectively. The pyruvate is converted along with NADH to lactate and NAD+ by lactate dehydrogenase (LDH). The disappearance of NADH is measured kinetically by monitoring A340 at 25° C. for 15 minutes. The enzymatic assay was carried out in a total reaction volume of 200 μL containing 33 mM triethanolamine-HCl, pH 7.4, 6 mM MgCl2, 100 mM KCl, 0.1 mM ATP, 1.33 mM PEP, 0.3 mM NADH, 0.2-1.0 U of PK, 0.2-1.0 U of LDH, and 150-240 nM KHK-C or KHK-A (0.01-0.02 U). Fructose was added to initiate the reactions to 0.2 mM, except for the no fructose controls which utilized water. This high-throughput assay was used to identify inhibitors that have an IC50 value<1 μM for KHK-C and to confirm that those values for KHK-A were not more than 2-fold lower.

SMILES | IC50
Cc1cccc(-n2ncc3ccc(NC(=O)[C@@](C)(N)CO)cc32)c1 [Compound 22, (S)-2-amino-3-hydroxy-2-methyl-N-(1-(m-tolyl)-1H-indazol-6-yl)propanamide hydrochloride] | 0.42 µM
Cc1cccc(-n2ncc3ccc(NC(=O)[C@@H](N)CCO)cc32)c1 [Compound 10, (S)-2-amino-4-hydroxy-N-(1-(m-tolyl)-1H-indazol-6-yl)butanamide hydrochloride] | 0.4 µM
CC(=O)OC[C@H](N)C(=O)Nc1ccc2cnn(-c3cccc(C)c3)c2c1 [Compound 41, (S)-2-amino-3-oxo-3-((1-(m-tolyl)-1H-indazol-6-yl)amino)propyl acetate hydrochloride] | 2.7 µM
Cc1cccc(-n2ncc3ccc(NC(=O)[C@H]4NCC[C@@H]4O)cc32)c1 [Compound 18, (2S,3S)-3-hydroxy-N-(1-(m-tolyl)-1H-indazol-6-yl)pyrrolidine-2-carboxamide hydrochloride] | 0.7 µM
Cc1cccc(-n2nnc3ccc(NC(=O)[C@@H](N)CO)cc32)c1 [Compound 40, (S)-2-amino-3-hydroxy-N-(1-(m-tolyl)-1H-benzo[d][1,2,3]triazol-6-yl)propanamide hydrochloride] | 0.14 µM
CCOC(=O)N[C@@H](CO)C(=O)Nc1ccc2cnn(-c3cccc(C)c3)c2c1 [Compound 36, (S)-ethyl (3-hydroxy-1-oxo-1-((1-(m-tolyl)-1H indazol-6-yl)amino)propan-2-yl)carbamate] | 0.4 µM
CC(=O)OC[C@H](NC(=O)OC(C)C)C(=O)Nc1ccc2cnn(-c3cccc(C)c3)c2c1 [Compound 31, (S)-2-((isopropoxycarbonyl)amino)-3-oxo-3-((1-(m-tolyl)-1H-indazol-6-yl)amino)propyl acetate] | 30 µM
Cc1cccc(-n2ncc3ccc(NC(=O)[C@H](C)N)cc32)c1 [Compound 6, (S)-2-amino-N-(1-(m-tolyl)-1H-indazol-6-yl)propanamide hydrochloride] | 0.11 µM
CCCCCCCC(=O)OC[C@H](NC(=O)OCC)C(=O)Nc1ccc2cnn(-c3cccc(C)c3)c2c1 [Compound 34, (S)-2-((ethoxycarbonyl)amino)-3-oxo-3-((1-(m-tolyl)-1H-indazol-6-yl)amino)propyl octanoate] | > 1000 µM
Cc1cccc(-n2nc(C(F)F)c3ccc(NC(=O)[C@@H](N)CO)cc32)c1 [Compound 48, (S)-2-amino-N-(3-(difluoromethyl)-1-(m-tolyl)-1H-indazol-6-yl)-3-hydroxypropanamide hydrochloride] | 0.46 µM
Cc1cccc(-n2ncc3ccc(NC(=O)[C@H](N)CCO)cc32)c1 [Compound 12, (R)-2-amino-4-hydroxy-N-(1-(m-tolyl)-1H-indazol-6-yl)butanamide hydrochloride] | 0.86 µM
Cc1cccc(-n2ncc3ccc(NC(=O)[C@@H](N)CO)cc32)c1 [Compound 3, (S)-2-amino-3-hydroxy-N-(1-(m-tolyl)-1H-indazol-6-yl)propanamide hydrochloride] | 0.04 µM
Cc1cccc(-n2ncc3ccc(NC(=O)[C@H]4C[C@@H](N)C4)cc32)c1 [Compound 16, (cis)-3-amino-N-(1-(m-tolyl)-1H-indazol-6-yl)cyclobutanecarboxamide hydrochloride] | 0.6 µM
Cc1cccc(-n2ncc3ccc(NC(=O)[C@@H](N)C(C)(C)O)cc32)c1 [Compound 21, (S)-2-amino-3-hydroxy-3-methyl-N-(1-(m-tolyl)-1H-indazol-6-yl]butanamide hydrochloride] | 3.6 µM
Cc1cccc(-n2ncc3ccc(NC(=O)[C@H](COC(=O)c4cccnc4)NC(=O)OC(C)C)cc32)c1 [Compound 33, (S)-2-((isopropoxycarbonyl)amino)-3-oxo-3-((1-(m-tolyl)-1H-indazol-6-yl)amino)propyl nicotinate] | > 1000 µM
Cc1cccc(-n2ncc3ccc(NC(=O)C(CN)C(C)C)cc32)c1 (centres unmarked) [Compound 8, 2-(aminomethyl)-3-methyl-N-(1-(m-tolyl)-1H-indazol-6-yl)butanamide hydrochloride] | 4.9 µM

SMILES | IC50
Cc1cccc(-n2ncc3ccc(NC(=O)C(N)C(=O)O)cc32)c1 (centres unmarked) [Compound 39, 2-amino-3-oxo-3-((1-(m-tolyl)-1H-indazol-6-yl)amino)propanoic acid hydrochloride] | 0.7 µM
Cc1cccc(-n2ncc3ccc(NC(=O)[C@H](N)CO)cc32)c1 [Compound 2, (R)-2-amino-3-hydroxy-N-(1-(m-tolyl)-1H-indazol-6-yl)propanamide hydrochloride] | 0.12 µM
Cc1cccc(-n2ncc3ccc(NC(=O)[C@H]4CC[C@@H]4N)cc32)c1 (relative stereo) [Compound 9, trans-2-amino-N-(1-(m-tolyl)-1H-indazol-6-yl)cyclobutanecarboxamide hydrochloride] | 0.67 µM
CCc1nn(-c2cccc(C)c2)c2cc(NC(=O)[C@@H](N)CO)c(C)cc12 [Compound 46, (S)-2-amino-N-(3-ethyl-5-methyl-1-(m-tolyl)-1H-indazol-6-yl)-3-hydroxypropanamide hydrochloride] | 1.9 µM
Cc1cccc(-n2ncc3ccc(NC(=O)[C@@H](N)CCN)cc32)c1 [Compound 13, (S)-2,4-diamino-N-(1-(m-tolyl)-1H-indazol-6-yl)butanamide] | 0.35 µM
Cc1cccc(-n2ncc3ccc(NC(=O)C(N)CO)cc32)c1 (centres unmarked) [Compound 1, 2-amino-3-hydroxy-N-(1-(m-tolyl)-1H-indazol-6-yl)propanamide hydrochloride] | 0.12 µM
Cc1cccc(-n2ncc3c(F)cc(NC(=O)[C@@H](N)CO)cc32)c1 [Compound 23, (S)-2-amino-N-(4-fluoro-1-(m-tolyl)-1H-indazol-6-yl)-3-hydroxypropanamide hydrochloride] | 0.024 µM
CCCCCCCC(=O)OC[C@H](N)C(=O)Nc1ccc2cnn(-c3cccc(C)c3)c2c1 [Compound 24, (S)-2-amino-3-oxo-3-((1-(m-tolyl)-1H-indazol-6-yl)amino)propyl octanoate hydrochloride] | 12 µM
Cc1cccc(-n2ncc3ccc(NC(=O)C[C@H](N)CO)cc32)c1 [Compound 11, (S)-3-amino-4-hydroxy-N-(1-(m-tolyl)-1H-indazol-6-yl)butanamide hydrochloride] | 1.2 µM
Cc1cccc(-n2ncc3ccc(NC(=O)[C@@H](N)[C@H](C)O)cc32)c1 [Compound 17, (2S,3S)-2-amino-3-hydroxy-N-(1-(m-tolyl)-1H-indazol-6-yl)butanamide hydrochloride] | 7 µM
CCOC(=O)N[C@@H](COC(C)=O)C(=O)Nc1ccc2cnn(-c3cccc(C)c3)c2c1 [Compound 30, (S)-2-((ethyloxycarbonyl)amino)-3-oxo-3-((1-(m-tolyl)-1H-indazol-6-yl)amino)propyl acetate] | 24 µM
CCOC(=O)N[C@@H](COC(=O)c1cccnc1)C(=O)Nc1ccc2cnn(-c3cccc(C)c3)c2c1 [Compound 32, (S)-2-((ethyloxycarbonyl)amino)-3-oxo-3-((1-(m-tolyl)-1H-indazol-6-yl)amino)propyl nicotinate] | > 1000 µM
Cc1cccc(-n2ncc3ccc(NC(=O)[C@H](CN)CO)cc32)c1 [Compound 4, (R)-3-amino-2-(hydroxymethyl)-N-(1-(m-tolyl)-1H-indazol-6-yl)propanamide hydrochloride] | 0.62 µM
Cc1cccc(-n2ncc3ccc(NC(=O)[C@@H](N)CN)cc32)c1 [Compound 15, (S)-2,3-diamino-N-(1-(m-tolyl)-1H-indazol-6-yl)propanamide dihydrochloride] | 0.63 µM
Cc1cccc(-n2ncc3ccc(NC(=O)[C@@H](N)[C@@H](C)O)cc32)c1 [Compound 20, (2S,3R)-2-amino-3-hydroxy-N-(1-(m-tolyl)-1H-indazol-6-yl)butanamide hydrochloride] | 0.72 µM
Cc1cccc(-n2ncc3cc(C)c(NC(=O)[C@@H](N)CO)cc32)c1 [Compound 42, (S)-2-amino-3-hydroxy-N-(5-methyl-1-(m-tolyl)-1H-indazol-6-yl)propanamide hydrochloride] | 1.8 µM
